From patent US20110200656A1, “ANTIMICROBIAL CURRENCY, MATERIAL AND METHOD” (MICROBAN PRODUCTS COMPANY, priority 2007, published 2011)

What was measured:
[1] = tested on: Staphylococcus aureus ATCC 6538; assay: Quantitative evaluation of antibacterial activity of bank note samples, modified AATCC 100-1993; details: 625 ppm agent in acrylate coating
Experimental: (§1) For the testing, a protocol was selected which measured the percent kill in a bacterial population over a period of time when put in contact with banknote samples.
(§2) Tests were conducted against two common bacteria: the gram-positive Staphylococcus aureus, which is found almost everywhere in and on the body, and which can cause numerous infections; as well as the gram-negative Escherichia coli, which is a common “bathroom bacteria” that can cause severe food poisoning. With good results against these organisms, efficacy against a broad spectrum of other bacteria can be predicted.
(§3) Ten samples marked Secu-GB1-A-260503, Secu-GB2-A-260503, Secu-GB3-A-260503, Secu-GB4-A-260503, Secu-GB5-A-260503, Secu-C-A-260503, Secu-C-B-260503, Secu-C-C-260503, Secu-C-D-260503 and Secu-C-E-260503 were manufactured employing 2,4,4′-trichloro-2′-hydroxydiphenyl ether in the acrylate composition applied as a coating layer on the planar material.
(§4) Samples from the bank note prototypes were evaluated for their antibacterial activity in accordance with the modified method AATCC 100-1993. The tests were performed against the organisms Staphylococcus aureus ATCC 6538 and Escherichia coli ATCC 8739.

[2] = tested on: Escherichia coli ATCC 8739; assay: as above; details: 625 ppm agent in acrylate coating
Experimental: as §1, §2, §3, §4

Oc1cc(Cl)ccc1Oc1ccc(Cl)cc1Cl [2,4,4′-trichloro-2′-hydroxydiphenyl ether]
log reductions (in words) [1]: strong log reductions | log reductions (in words) [2]: strong log reductions
